Experimental data from paper PMC6661824, “α-Glucosidase inhibitors from a mangrove associated fungus, Zasmidium sp. strain EM5-10” (BMC Chemistry, 2019).
Where “and” joins values, the source holds several entries; their conditions need not be identical. Equal entries are not always repeated.

Tests used:
α-glucosidase = assay: Kinetic analysis of α-glucosidase inhibition (Lineweaver–Burk plots); type: biochemical, S. cerevisiae; settings: for type of inhibition against α-glucosidase: Lineweaver–Burk plots; for Vmax: maximum reaction velocity of α-glucosidase in presence of inhibitor
Description: Kinetic analysis was carried out to understand the interaction of tripalmitin with α-glucosidase. Lineweaver–Burk plots were constructed using different concentrations of substrate and tripalmitin.
(§1) The α-glucosidase inhibitory assay was performed according to the protocol established in our laboratory. α-Glucosidase from baker’s yeast purchased from Sigma Chemical Co. The inhibition was measured spectrophotometrically at pH 7.0 and 37 °C employing 2 mM p-nitrophenyl α-D-glucopyranoside (PNP-G) as a substrate and 32 mU/mL of the enzyme, in 100 mM potassium phosphate buffer (enzyme stock). […] The absorbance (A) of 4-nitrophenol released by the hydrolysis of PNP-G was measured at 400 nm by Synergy HT Bio Tek microplate spectrophotometer. […] After incubating, 150 µL of the substrate was added and further incubated for 20 min at 37 °C. All assays are performed in 96-well microplates (Greiner bio-one 655101) in duplicate. The activity of samples was calculated as a percentage in comparison to a control (DMSO or MeOH instead of sample solution) according to the following equation: %Inhibition=ΔAcontrol-ΔAsample/ΔAcontrol×100%

[1] = biological target: α-Glucosidase from baker's yeast; assay: α-Glucosidase inhibitory assay (PNP-G substrate); type: biochemical, S. cerevisiae
Description: as §1
The concentration required to inhibit activity of the enzyme by 50% (IC50) was calculated by regression analysis.

[2] = standards purchased from Sigma-Aldrich

Row | SMILES | type of inhibition against α-glucosidase (α-glucosidase) | Vmax (α-glucosidase) [mmol/L/min] | IC50 ([1]; pH 7.0, 37 °C, 2 mM PNP-G) | IC50 α-glucosidase ([1]; pH 7.0, 37 °C, 2 mM PNP-G) [µg/mL] | IC50 [1, 2] [µM] | α-glucosidase inhibition (result in words) ([1]; obtained from methanolysis reaction)
1 | CCCCCCCCCCCCCCCC(=O)OCC(COC(=O)CCCCCCCCCCCCCCC)OC(=O)CCCCCCCCCCCCCCC [Compound 1, tripalmitin] | mixed inhibitor | 0.0027 ± 0.0001 | 3.75 µM and 3.67 µM | 3.02 | 3.2 | 
2 | OCC(O)CO [glycerol] |  |  |  |  |  | inactive
3 | CCCCCCCCCCCCCCCC(=O)OC [methyl palmitate] | mixed inhibitors | 0.0024 ± 0.0002 | 0.46 µM | 0.13 |  | 
4 | CCCCCCCC/C=C\CCCCCCCC(=O)O [oleic acid] |  |  | 0.23 µM |  |  | 
5 | CCCCCCCCCCCCCCCCCC(=O)O [stearic acid] |  |  | 0.81 µM |  |  | 
6 | CCCCCCCC/C=C\CCCCCCCC(=O)OCC(COC(=O)CCCCCCC/C=C\CCCCCCCC)OC(=O)CCCCCCC/C=C\CCCCCCCC [triolein] |  |  |  |  | 1.52 | 
